Reference: patent US5658500A, “Substituted naphthopyrans” (Transitions Optical, Inc., priority 1995, dated 1997)

Columns and labels:
[1] = lambda max of the activated (colored) form in the visible spectrum; format: physicochemical; set-up: unit not given here; conditions: wavelength of maximum absorption of the activated form, in a diethylene glycol bis(allyl carbonate) composition
Description: (§1) Testing was done with the photochromic naphthopyrans of the Examples incorporated or imbibed into test square polymerizates by one of two different methods. In Method I, the photochromic naphthopyrans of the Examples were incorporated into polymeric samples. The quantity of naphthopyran calculated to yield a 1.5 times 10^-3 molal solution was added to a flask containing 50 grams of a monomer blend of 4 parts ethoxylated bisphenol A dimethacrylate (BPA 2EO DMA), 1 part poly(ethyleneglycol) 600 dimethacrylate, and 0,033 weight percent 2,2'-azobis(2-methyl propionitrile) (AIBN). The naphthopyrans were dissolved into the monomer blend by stirring and gentle heating, if necessary. After a clear solution was obtained, it was poured into a flat sheet mold having the interior dimensions of 2.2 mm×6 inches (15.24 cm)×6 inches (15.24 cm). The mold was sealed and placed in a horizontal air flow, programmable oven set to increase the temperature from 40° C. to 95° C. over a 5 hour interval, hold the temperature at 95° C. for 3 hours and then lower it to 60° C. for at least 2 hours before the end of the curing cycle. After the molds were opened, the polymer sheets were cut using a diamond blade saw into 2 inch (5.1 centimeters) test squares.
(§2) In Method II, the photochromic naphthopyran was imbibed into test square polymerizates prepared from a diethylene glycol bis(allyl carbonate) composition. The test squares measured 1/8 inch (0.3 centimeters)×2 inches (5.1 centimeters)×2 inches (5.1 centimeters). In the imbibition process, the photochromic naphthopyran was dissolved to form a 10 weight percent solution in a 1:9 mixture of ethyl cellulose:toluene. The solution was then spin coated onto the test squares and allowed to dry. Samples were then heated in a hot-air oven at 135°-155°C. for a period of time sufficient to thermally transfer the photochromic into the test squares. […] After cooling, the ethyl cellulose/toluene resin film was removed from the test squares by washing with acetone.
The ΔOD/Min, which represents the sensitivity of the photochromic compound's response to UV light, was measured over the first five (5) seconds of UV exposure, then expressed on a per minute basis. The saturation optical density (OD) was taken under identical conditions as the ΔOD/Min, except UV exposure was continued for 20 minutes for the examples in Table 1. The lambda max reported in Table 1 is the wavelength in the visible spectrum at which the maximum absorption of the activated (colored) form of the photochromic compound in a diethylene glycol bis(allyl carbonate) composition occurs. The Bleach Rate (T 1/2) is the time interval in seconds for the absorbance of the activated form of the naphthopyran in the test squares to reach one half the highest absorbance at room temperature (75° F., 23.9° C.) after removal of the source of activating light.

[2] = photochromic response of test squares on an optical bench (sensitivity, saturation optical density, bleach rate); format: physicochemical; conditions: for ΔOD @ SATURATION: UV exposure 20 minutes; for ΔOD @ SATURATION / ΔOD/MIN SENSITIVITY: 75° F. (23.9° C.); for ΔOD/MIN SENSITIVITY: first five seconds of UV exposure, expressed per minute; for Bleach Rate (T1/2): room temperature (75° F., 23.9° C.) after removal of activating light
Description: as §1
as §2, with “dry.” for “dry. Samples were then heated in a hot-air oven at 135°-155°C. for a period of time sufficient to thermally transfer the photochromic into the test squares.”
The photochromic test squares were tested for photochromic response rates on an optical bench. […] The bench was fitted with a 150 watt Xenon arc lamp, a remote controlled shutter, a copper sulfate bath acting as a heat sink for the arc lamp, a Schott WG-320 nm cut-off filter which removes short wavelength radiation; neutral density filter(s) and a sample holder in which the square to be tested was inserted. A collimated beam of light from a tungsten lamp was passed through the square at a small angle normal to the square. After passing through the square, the light from the tungsten lamp was directed through a photopic filter attached to a detector. The photopic filter passes wavelengths such that the detector mimics the response of the human eye. The output signals from the detector(s) were processed by a radiometer.
Change in optical density (ΔOD) was determined by inserting a test square in the bleached state into the sample holder, adjusting the transmittance scale to 100%, opening the shutter from the Xenon lamp to provide ultraviolet radiation to change the test square from the bleached state to an activated (i.e., darkened) state, measuring the transmittance in the activated state, and calculating the change in optical density according to the formula ΔOD=log(100/%Ta) where %Ta is the percent transmittance in the activated state and the logarithm is to the base 10.
The ΔOD/Min, which represents the sensitivity of the photochromic compound's response to UV light, was measured over the first five (5) seconds of UV exposure, then expressed on a per minute basis. The saturation optical density (OD) was taken under identical conditions as the ΔOD/Min, except UV exposure was continued for 20 minutes for the examples in Table 1. The lambda max reported in Table 1 is the wavelength in the visible spectrum at which the maximum absorption of the activated (colored) form of the photochromic compound in a diethylene glycol bis(allyl carbonate) composition occurs.

[3] = Method II (imbibed) test square

In the case of COC(=O)c1c2c(c3ccccc3c1O)OC(c1ccccc1)(c1ccc(N3CCOCC3)cc1)C=C2 (centres unmarked) [Example 1, 2-(4-morpholinophenyl)-2-phenyl-5-methoxycarbonyl-6-hydroxy-2H-naphtho[1,2-b]pyran], the “LAMBDA MAX (VISIBLE)” value [1] is reported as 511, the “ΔOD @ SATURATION” value ([2]; Method I test square) is reported as 1.36 and the “ΔOD/MIN SENSITIVITY” value ([2]; Method I test square) is reported as 0.64 ΔOD/MIN. For the same molecule, the “Bleach Rate (T1/2)” value ([2]; Method I test square) was 3.22 min.
For COC(=O)c1c2c(c3ccccc3c1OC)OC(c1ccccc1)(c1ccc(N3CCOCC3)cc1)C=C2 (centres unmarked) [Example 2, 2-(4-morpholinophenyl)-2-phenyl-5-methoxycarbonyl-6-methoxy-2H-naphtho[1,2-b]pyran], the “LAMBDA MAX (VISIBLE)” value [1] was 541, the “ΔOD @ SATURATION” value ([2]; Method I test square) was 0.95 and the “ΔOD/MIN SENSITIVITY” value ([2]; Method I test square) was 0.29 ΔOD/MIN. The “Bleach Rate (T1/2)” value ([2]; Method I test square) was 4.87 min.
For COC(=O)c1c2c(c3ccccc3c1OC(C)=O)OC(c1ccccc1)(c1ccc(N3CCOCC3)cc1)C=C2 (centres unmarked) [Example 3, 2-(4-morpholinophenyl)-2-phenyl-5-methoxycarbonyl-6-acetoxy-2H-naphtho[1,2-b]pyran], the “LAMBDA MAX (VISIBLE)” value [1] was 545, the “ΔOD @ SATURATION” value ([2]; Method I test square) was 0.31 and the “ΔOD/MIN SENSITIVITY” value ([2]; Method I test square) was 0.24 ΔOD/MIN. For the same molecule, the “Bleach Rate (T1/2)” value ([2]; Method I test square) was 1.47 min.
In the case of CCn1c2ccccc2c2ccc(C3(c4ccccc4)C=Cc4c(C(=O)OC)c(OC(C)=O)c5ccccc5c4O3)cc21 (centres unmarked) [Example 4, 2-(9-ethylcarbazol-2-yl)-2-phenyl-5-methoxycarbonyl-6-acetoxy-2H-naphtho[1,2-b]pyran], the “LAMBDA MAX (VISIBLE)” value [1] is reported as 528, the “ΔOD @ SATURATION” value [2, 3] is reported as 0.46 and the “ΔOD/MIN SENSITIVITY” value [2, 3] is reported as 0.67 ΔOD/MIN. For the same molecule, the “Bleach Rate (T1/2)” value [2, 3] was 4.5 min.
With COC(=O)c1c2c(c3ccccc3c1OC(C)=O)OC(c1ccccc1)(c1ccc3c4ccccc4n(-c4ccccc4)c3c1)C=C2 (centres unmarked) [Example 5, 2-(9-phenylcarbazol-2-yl)-2-phenyl-5-methoxycarbonyl-6-acetoxy-2H-naphtho[1,2-b]pyran] the “LAMBDA MAX (VISIBLE)” value [1] was 520, the “ΔOD @ SATURATION” value ([2]; Method I test square) was 0.88 and the “ΔOD/MIN SENSITIVITY” value ([2]; Method I test square) was 0.31 ΔOD/MIN. The “Bleach Rate (T1/2)” value ([2]; Method I test square) was 1.17 min.
In the case of COC(=O)c1c2c(c3ccccc3c1OC(C)=O)OC(c1ccccc1)(c1ccc(N(C)C)cc1)C=C2 (centres unmarked) [Example 6, 2-(4-dimethylaminophenyl)-2-phenyl-5-methoxycarbonyl-6-acetoxy-2H-naphtho[1,2-b]pyran], the “LAMBDA MAX (VISIBLE)” value [1] is reported as 591, the “ΔOD @ SATURATION” value ([2]; Method I test square) is reported as 0.30 and the “ΔOD/MIN SENSITIVITY” value ([2]; Method I test square) is reported as 0.27 ΔOD/MIN. The “Bleach Rate (T1/2)” value ([2]; Method I test square) was 1.17 min.
In the case of COC(=O)c1c2c(c3ccccc3c1C)OC(c1ccccc1)(c1ccc(N(C)C)cc1)C=C2 (centres unmarked) [Example 7, 2-(4-dimethylaminophenyl)-2-phenyl-5-methoxycarbonyl-6-methyl-2H-naphtho[1,2-b]pyran], the “LAMBDA MAX (VISIBLE)” value [1] is reported as 584, the “ΔOD @ SATURATION” value ([2]; Method I test square) is reported as 0.51 and the “ΔOD/MIN SENSITIVITY” value ([2]; Method I test square) is reported as 0.20 ΔOD/MIN. For the same molecule, the “Bleach Rate (T1/2)” value ([2]; Method I test square) was 3.33 min.
In the case of COC(=O)c1c2c(c3ccccc3c1OC(C)=O)OC(c1ccc(N(C)C)cc1)(c1ccc(N(C)C)cc1)C=C2 [Example 8, 2,2-bis (4-dimethylaminophenyl)-5-methoxycarbonyl-6-acetoxy-2H-naphtho[1,2-b]pyran], the “LAMBDA MAX (VISIBLE)” value [1] is reported as 618, the “ΔOD @ SATURATION” value ([2]; Method I test square) is reported as 0.07 and the “ΔOD/MIN SENSITIVITY” value ([2]; Method I test square) is reported as 0.16 ΔOD/MIN. The “Bleach Rate (T1/2)” value ([2]; Method I test square) was 0.317 min.
